In ChEMBL document CHEMBL1148604 (J Med Chem, 2006):
Values after ≈ are worked out from the molar mass of the structure shown. Active and inactive are the calls of the source. The calls are words filed in the database; no cut-off is given here.

Key:
[1] = target: T1, 3-oxoacyl-[acyl-carrier-protein] synthase 1 (Mycobacterium tuberculosis) (UniProt P9WQD9); test: Inhibitory activity against KasA from Mycobacterium tuberculosis H37Rv at 100 uM
T1 sequence (whole entry): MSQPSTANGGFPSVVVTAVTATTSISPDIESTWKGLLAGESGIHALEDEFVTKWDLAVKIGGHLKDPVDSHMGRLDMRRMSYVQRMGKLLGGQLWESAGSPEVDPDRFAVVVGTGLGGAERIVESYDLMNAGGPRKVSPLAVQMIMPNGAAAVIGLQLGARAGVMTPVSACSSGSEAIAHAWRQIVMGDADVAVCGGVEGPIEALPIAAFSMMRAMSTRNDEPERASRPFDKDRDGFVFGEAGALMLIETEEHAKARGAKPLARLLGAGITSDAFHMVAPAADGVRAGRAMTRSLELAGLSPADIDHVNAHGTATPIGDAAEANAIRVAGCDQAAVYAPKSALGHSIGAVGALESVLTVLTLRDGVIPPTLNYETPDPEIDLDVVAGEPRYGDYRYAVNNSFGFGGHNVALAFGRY

Escherichia coli = test: Inhibitory activity against Escherichia coli ANSI; assay type: functional
[2] = tested on: Mycobacterium tuberculosis; test: Inhibitory activity against Mycobacterium tuberculosis H37Rv; assay type: functional
[3] = target: T2, 3-oxoacyl-[acyl-carrier-protein] synthase 3 (Escherichia coli, UniProt C3TDZ2); test: Inhibitory activity against FabH from Escherichia coli ANSI
T2 sequence (C3TDZ2 whole entry): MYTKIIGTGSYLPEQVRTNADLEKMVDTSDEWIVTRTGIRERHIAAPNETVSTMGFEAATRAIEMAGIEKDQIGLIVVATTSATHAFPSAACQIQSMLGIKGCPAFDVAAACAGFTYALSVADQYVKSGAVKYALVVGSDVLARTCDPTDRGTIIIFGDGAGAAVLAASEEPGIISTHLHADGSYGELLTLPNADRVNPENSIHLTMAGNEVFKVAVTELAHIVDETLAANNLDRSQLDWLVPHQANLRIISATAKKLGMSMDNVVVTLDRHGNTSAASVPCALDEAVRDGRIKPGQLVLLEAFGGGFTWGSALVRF

[4] = target: T3, Mycobacterial beta-ketoacyl-[acyl-carrier-protein] synthase III (Mycobacterium tuberculosis, UniProt P9WNG3); test: Inhibitory activity against FabH from Mycobacterium tuberculosis H37Rv
T3 sequence (P9WNG3 whole entry): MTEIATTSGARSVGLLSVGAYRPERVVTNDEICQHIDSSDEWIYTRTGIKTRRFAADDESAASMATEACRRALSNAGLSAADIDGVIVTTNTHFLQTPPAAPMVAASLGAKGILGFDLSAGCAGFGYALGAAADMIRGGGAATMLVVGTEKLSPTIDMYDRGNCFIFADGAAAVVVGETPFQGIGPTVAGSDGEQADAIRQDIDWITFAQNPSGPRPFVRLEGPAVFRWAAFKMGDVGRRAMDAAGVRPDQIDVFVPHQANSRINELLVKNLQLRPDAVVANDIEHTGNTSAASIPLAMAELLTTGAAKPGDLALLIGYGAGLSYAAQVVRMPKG

[5] = target: T4, 3-oxoacyl-[acyl-carrier-protein] synthase 2 (Mycobacterium tuberculosis) (UniProt P9WQD7); test: Inhibitory activity against KasB from Mycobacterium tuberculosis H37Rv at 100 uM
T4 sequence (whole entry): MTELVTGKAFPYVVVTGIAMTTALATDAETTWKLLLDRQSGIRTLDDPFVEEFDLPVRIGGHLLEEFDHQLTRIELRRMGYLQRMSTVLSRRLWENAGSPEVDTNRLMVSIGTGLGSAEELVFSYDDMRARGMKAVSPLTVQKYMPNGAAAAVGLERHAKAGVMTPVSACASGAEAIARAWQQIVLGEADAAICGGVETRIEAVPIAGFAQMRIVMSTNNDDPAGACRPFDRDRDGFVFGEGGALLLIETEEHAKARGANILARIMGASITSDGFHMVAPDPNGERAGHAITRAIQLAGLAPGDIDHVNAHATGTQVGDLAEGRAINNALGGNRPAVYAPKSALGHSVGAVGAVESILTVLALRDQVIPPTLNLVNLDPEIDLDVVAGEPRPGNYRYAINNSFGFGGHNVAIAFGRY

[6] = target: T5, 3-oxoacyl-[acyl-carrier-protein] synthase 1 (Escherichia coli K-12) (UniProt P0A953); test: Inhibitory activity against FabB from Escherichia coli ANSI at 100 uM
T5 sequence (whole entry): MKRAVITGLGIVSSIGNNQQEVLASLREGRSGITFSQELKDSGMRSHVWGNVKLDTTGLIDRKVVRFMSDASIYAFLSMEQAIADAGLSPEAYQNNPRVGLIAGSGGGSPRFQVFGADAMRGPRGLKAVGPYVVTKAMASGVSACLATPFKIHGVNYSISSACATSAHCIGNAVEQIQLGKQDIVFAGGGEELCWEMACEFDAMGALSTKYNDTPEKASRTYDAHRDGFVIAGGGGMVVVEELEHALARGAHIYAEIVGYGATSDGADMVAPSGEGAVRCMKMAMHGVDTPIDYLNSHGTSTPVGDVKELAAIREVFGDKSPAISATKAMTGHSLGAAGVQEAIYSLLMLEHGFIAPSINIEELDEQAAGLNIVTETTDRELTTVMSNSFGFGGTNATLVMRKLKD

[7] = target: T6, 3-oxoacyl-[acyl-carrier-protein] synthase 3 (Escherichia coli) (UniProt C3TDZ2); test: Inhibitory activity against FabH from Escherichia coli ANSI at 100 uM
T6 sequence (whole entry): T2 sequence (C3TDZ2 whole entry)

[8] = target: T7, Mycobacterial beta-ketoacyl-[acyl-carrier-protein] synthase III (Mycobacterium tuberculosis) (UniProt P9WNG3); test: Inhibitory activity against FabH from Mycobacterium tuberculosis H37Rv at 100 uM
T7 sequence (whole entry): T3 sequence (P9WNG3 whole entry)

[9] = target: T8, 3-oxoacyl-[acyl-carrier-protein] synthase 1 (Escherichia coli K-12, UniProt P0A953); test: Inhibitory activity against FabB from Escherichia coli ANSI
T8 sequence (P0A953 whole entry): T5 sequence (whole entry)

[10] = target: T9, 3-oxoacyl-[acyl-carrier-protein] synthase 2 (Mycobacterium tuberculosis, UniProt P9WQD7); test: Inhibitory activity against KasB from Mycobacterium tuberculosis H37Rv
T9 sequence (P9WQD7 whole entry): T4 sequence (whole entry)

wild-type apo-KasA = wild-type apo-KasA (Mycobacterium tuberculosis, UniProt P9WQD9); test: Inhibitory activity against KasA from Mycobacterium tuberculosis H37Rv

SMILES | inhibition [1] | MIC (Escherichia coli) [µM] | MIC [2] [µM] | IC50 [3] [µM] | IC50 [4] [µM] | inhibition [5] | inhibition [6] | inhibition [7] | inhibition [8] | IC50 [9] [µM] | IC50 [10] [µM] | IC50 (wild-type apo-KasA) [µM]
CCCCCCCCCCCCC1(C)SC(O)=C(C)C1=O (stereo unspecified) | inactive | 25 (≈ 7.81 µg/mL) | 1000 (≈ 313 µg/mL) | 100 | 50 | inactive | inactive |  |  |  |  | 
C/C=C/CC1(C)SC(O)=C(C)C1=O (stereo unspecified) | inactive | > 1000 | > 1000 |  |  | inactive | inactive | inactive | inactive |  |  | 
CC1=C(O)SC(C)C1=O (stereo unspecified) [THIOLACTONE] | inactive | > 1000 | > 1000 |  |  | inactive | inactive | inactive | inactive |  |  | 
CCCCCCCCCCC1(C)SC(O)=C(C)C1=O (stereo unspecified) | inactive | 100 (≈ 28.4 µg/mL) | 500 (≈ 142 µg/mL) | 100 | > 100 | inactive | inactive |  | < 30% |  |  | 
CCCCCCCCCCCCCC1(C)SC(O)=C(C)C1=O (stereo unspecified) | inactive | > 200 | 500 (≈ 163 µg/mL) | 100 | 80 | inactive | < 30% |  |  | > 100 |  | 
CC1=C(O)C(C)(Cc2c(C)cc(C)cc2C)SC1=O (stereo unspecified) |  | > 1000 | 1000 (≈ 276 µg/mL) | > 1000 | > 1000 |  |  |  |  | > 1000 | > 1000 | > 1000
CC1=C(O)C(C)(Cc2ccc(F)cc2)SC1=O (stereo unspecified) |  | > 1000 | > 1000 | > 1000 | > 100 |  |  |  |  | > 1000 | > 1000 | > 1000
CC1=C(O)C(C)(CC2CCCCC2)SC1=O (stereo unspecified) |  | > 1000 | > 1000 | > 1000 | > 1000 |  |  |  |  | > 1000 | > 1000 | > 1000
CC1=C(O)C(C)(Cc2c(Cl)cccc2Cl)SC1=O (stereo unspecified) |  | > 1000 | 500 (≈ 152 µg/mL) | > 1000 | > 1000 |  |  |  |  | > 1000 | > 1000 | > 1000
CC(C)=CCC/C(C)=C/CC1(C)SC(O)=C(C)C1=O (stereo unspecified) | inactive | > 1000 | > 1000 | 100 |  | inactive | inactive |  | inactive |  |  | 
CC1=C(O)C(C)(Cc2ccc(Cl)cc2)SC1=O (stereo unspecified) |  | > 1000 | 1000 (≈ 269 µg/mL) | > 1000 | > 100 |  |  |  |  | > 1000 | > 1000 | > 1000
CC1=C(O)C(C)(Cc2ccc([N+](=O)[O-])cc2)SC1=O (stereo unspecified) |  | > 1000 | > 1000 | > 1000 | > 1000 |  |  |  |  | > 1000 | > 1000 | > 1000
CCCCCCCCCCCCCCC1(C)SC(O)=C(C)C1=O (stereo unspecified) | inactive | 200 (≈ 68.1 µg/mL) | 1000 (≈ 341 µg/mL) | 100 | 80 | inactive | < 30% |  |  | > 100 |  | 
CC1=C(O)C(C)(Cc2cccc(C(F)(F)F)c2)SC1=O (stereo unspecified) |  | > 1000 | 1000 (≈ 302 µg/mL) | > 1000 | > 1000 |  |  |  |  | > 1000 | > 1000 | > 1000
COc1ccccc1CC1(C)SC(O)=C(C)C1=O (stereo unspecified) |  | > 1000 | > 1000 | > 1000 | > 100 |  |  |  |  | > 1000 | > 1000 | > 1000
CCCCCCCCCCCC1(C)SC(O)=C(C)C1=O (stereo unspecified) |  | 25 (≈ 7.46 µg/mL) | 500 (≈ 149 µg/mL) | > 100 | 100 |  |  |  |  | > 1000 | > 1000 | > 1000
CC1=C(O)C(C)(Cc2ccc(C(C)(C)C)cc2)SC1=O (stereo unspecified) |  | > 1000 | 1000 (≈ 290 µg/mL) | > 1000 | > 100 |  |  |  |  | > 1000 | > 1000 | > 1000
CC1=C(O)C(C)(CC2CCC2)SC1=O (stereo unspecified) |  | > 1000 | 1000 (≈ 212 µg/mL) | > 1000 | > 1000 |  |  |  |  | > 1000 | > 1000 | > 1000
CCCCCCCC1(C)SC(O)=C(C)C1=O (stereo unspecified) |  | 200 (≈ 48.5 µg/mL) | 1000 (≈ 242 µg/mL) | > 1000 | > 1000 |  |  |  |  | > 1000 | > 1000 | > 1000
